In US7279161B2, “Factor IX/factor IXa activating antibodies and antibody derivatives” (Baxter Aktiengesellschaft, priority 1999, dated 2007):

Assays:
human FIXa = molecular target: T1, human FIXa (Homo sapiens, UniProt P00740); test: Chromogenic FVIII-like (FXa generation) assay with human FIXa added; assay type: biochemical
T1 construct: with (+) and without (−) addition of 50 ng human FIXaβ; purchased ERL (Enzyme Research Laboratories)
Protocol: The chromogenic activity of these antibody preparations was measured in the following FXa generation kinetic assay: 10 μg of monoclonal antibody (in 25 μl) were transferred to microtiter plate wells and warmed to 37° C. Chromogenic substrate (S-2222), synthetic thrombin inhibitor (I-2581), factor IXa and FX were reconstituted in sterile water and FIXa/FX (both bovine) were mixed with phospholipids according to the supplier's protocol. Per reaction, 50 μl of the phospholipid/FIXa/FX solution were combined with 25 μl CaCl2 (25 mM) and 50 μl of the substrate/inhibitor cocktail. To start the reaction, 125 μl of the premix were added to the monoclonal antibody solution in the microtiter plates and incubated at 37° C. Absorbance at 405 nm and 490 nm of the samples was read at various times (5 min to 2 h) against a reagent blank ([…] TBS instead of monoclonal antibodies) in a Labsystems iEMS Reader MF™ microtiter plate reader using GENESIS™ software. In parallel, the same reactions were performed except that 50 ng human FIXa were added per reaction.
To analyze the FVIII-like (FIXa activating) activity of the peptides, an assay system based on a commercial available FVIII assay was developed (see examples 2 and 4). The basic principle is, that without a cofactor, FIXa will have very limited activity towards its natural substrate FX. […] The amount of FXa generated is monitored by cleavage of a chromogenic substrate. The principle of the revised chromogenic assay is described for two representative peptides: A1/3 and A1/5 (Table 2). Briefly, 25 μl aliquots of peptide stock solution (in imidazole buffer (IZ) 50 mM imidazole, 100 mM NaCl, pH 7.2) were transferred to microtiter plate wells and warmed to 37° C. Chromogenic FXa substrate (S-2222), synthetic thrombin inhibitor (I-2581), bovine FIXa and bovine FX were reconstituted in sterile water and FIXa/FX mixed with phospholipids according to the supplier's protocol. […] Per reaction, 50 μl of the phospholipid/FIXa/FX solution were combined with 25 μl CaCl2 (25 mM) and 50 μl of the substrate/inhibitor cocktail. To start the reaction, 125 μl of the premix were added to the peptide solution in the microtiter plate and incubated at 37° C. Absorbance at 405 nm and 490 nm of the samples was read at various times (5 min to 2 h) against a reagent blank in a Labsystems iEMS Reader MF™ microtiter plate reader using GENESIS™ software.

FVIII deficient plasma = test: aPTT based one stage clotting assay in FVIII deficient plasma; assay type: biochemical, human; conditions: for one-stage clotting time (printed in brackets after 'strong reduction' / 'strongly active'): 2.2 nM human FIXa
Protocol: During normal hemostasis, FIX becomes initially activated either by the tissue factor (TF)/factor VIIa pathway or later on by activated factor XI (FXIa). Subsequent to its activation, FIXa associates on the platelet surface in a membrane bound complex with activated FVIII. […] Different amounts of antibody 193/AD3 or mouse IgG (as a control) were used in a standard aPTT based one stage clotting assay. Briefly, 100 μl of antibody-containing samples were incubated with 100 μl of FVIII deficient plasma (DP) and with 100 μl of DAPTTIN (PTT Reagent for determining activated Thromboplastin Time; IMMUNO AG) reagent, in a KC10A clotting analyzer. Where indicated, a total amount of 50 ng activated FIX was included in the reaction mixture. After a 4 minute incubation, the reaction was started by the addition of 100 μl CaCl2 (25 mM).
The peptides were also analyzed for their potential to reduce the clotting time in a FVIII deficient plasma. The aPTT based one stage clotting assay was essentially done as described (see example 6). Clotting times (time from starting the reaction to the “clot”-formation were compared either against FVIII, a buffer control (IZ) or a control peptide (scrambled version). The results of two typical clotting experiments done with two different aPTT reagents (DAPTTIN and Pathromtin SL) are shown in table 3A and table 3B.

[1] = in the presence of 2.2 nM human FIXa

RRRGEYGVYWNGDFYRRR [A1/3-scr3]
chromogenic FVIII-like activity (FXa generation) (human FIXa; 2.9 nM human FIXa): did not give any significant chromogenic activity | average clotting time (FVIII deficient plasma; Table 3A Exp. 1, DAPTTIN, 2.5 μM, 2.2 nM FIXa): 96 s | clotting time (FVIII deficient plasma; Table 3A Exp. 1, DAPTTIN, 2.5 μM, 2.2 nM FIXa, duplicate 1): 96.3 s | clotting time (FVIII deficient plasma; Table 3A Exp. 1, DAPTTIN, 2.5 μM, 2.2 nM FIXa, duplicate 2): 95.2 s | average clotting time (FVIII deficient plasma; Table 3A Exp. 1, DAPTTIN, 2.5 μM, w/o FIXa): 108 s | clotting time (FVIII deficient plasma; Table 3A Exp. 1, DAPTTIN, 2.5 μM, w/o FIXa, duplicate 1): 107.8 s | clotting time (FVIII deficient plasma; Table 3A Exp. 1, DAPTTIN, 2.5 μM, w/o FIXa, duplicate 2): 107.4 s | average clotting time (FVIII deficient plasma; Table 3A Exp. 1, DAPTTIN, 7.5 μM, 2.2 nM FIXa): 101 s | clotting time (FVIII deficient plasma; Table 3A Exp. 1, DAPTTIN, 7.5 μM, 2.2 nM FIXa, duplicate 1): 100.8 s | clotting time (FVIII deficient plasma; Table 3A Exp. 1, DAPTTIN, 7.5 μM, 2.2 nM FIXa, duplicate 2): 100.6 s | average clotting time (FVIII deficient plasma; Table 3A Exp. 1, DAPTTIN, 7.5 μM, w/o FIXa): 114 s | clotting time (FVIII deficient plasma; Table 3A Exp. 1, DAPTTIN, 7.5 μM, w/o FIXa, duplicate 1): 114.2 s | clotting time (FVIII deficient plasma; Table 3A Exp. 1, DAPTTIN, 7.5 μM, w/o FIXa, duplicate 2): 113.9 s | average clotting time (FVIII deficient plasma; Table 3A Exp. 1, DAPTTIN, 12.5 μM, 2.2 nM FIXa): 104 s | clotting time (FVIII deficient plasma; Table 3A Exp. 1, DAPTTIN, 12.5 μM, 2.2 nM FIXa, duplicate 1): 103.1 s | clotting time (FVIII deficient plasma; Table 3A Exp. 1, DAPTTIN, 12.5 μM, 2.2 nM FIXa, duplicate 2): 104.5 s | average clotting time (FVIII deficient plasma; Table 3A Exp. 1, DAPTTIN, 12.5 μM, w/o FIXa): 117 s | clotting time (FVIII deficient plasma; Table 3A Exp. 1, DAPTTIN, 12.5 μM, w/o FIXa, duplicate 1): 116 s | clotting time (FVIII deficient plasma; Table 3A Exp. 1, DAPTTIN, 12.5 μM, w/o FIXa, duplicate 2): 117.6 s | average clotting time (FVIII deficient plasma; Table 3A Exp. 1, DAPTTIN, 15 μM, 2.2 nM FIXa): 106 s | clotting time (FVIII deficient plasma; Table 3A Exp. 1, DAPTTIN, 15 μM, 2.2 nM FIXa, duplicate 1): 106.1 s | clotting time (FVIII deficient plasma; Table 3A Exp. 1, DAPTTIN, 15 μM, 2.2 nM FIXa, duplicate 2): 105.5 s | average clotting time (FVIII deficient plasma; Table 3A Exp. 1, DAPTTIN, 15 μM, w/o FIXa): 122 s | clotting time (FVIII deficient plasma; Table 3A Exp. 1, DAPTTIN, 15 μM, w/o FIXa, duplicate 1): 122.5 s | clotting time (FVIII deficient plasma; Table 3A Exp. 1, DAPTTIN, 15 μM, w/o FIXa, duplicate 2): 122 s

RdRdRdEGGGYYVNWYFDRdRdRd [A1/3-Rd]
chromogenic activity (human FIXa; 12 μM peptide, 2.3 nM human FIXa): virtually unchanged | chromogenic activity (human FIXa; 12 μM peptide, 2.3 nM human FIXa, listed as A1/3-rd): did not change the FVIII-like activity | average clotting time (FVIII deficient plasma; Table 4, 1.25 μM, 2.2 nM FIXa): 96 s | clotting time (FVIII deficient plasma; Table 4, 1.25 μM, 2.2 nM FIXa, duplicate 1): 96.6 s | clotting time (FVIII deficient plasma; Table 4, 1.25 μM, 2.2 nM FIXa, duplicate 2): 96 s | average clotting time (FVIII deficient plasma; Table 4, 1.25 μM, w/o FIXa): 108 s | clotting time (FVIII deficient plasma; Table 4, 1.25 μM, w/o FIXa, duplicate 1): 107.5 s | clotting time (FVIII deficient plasma; Table 4, 1.25 μM, w/o FIXa, duplicate 2): 107.7 s | average clotting time (FVIII deficient plasma; Table 4, 2.5 μM, 2.2 nM FIXa): 95 s | clotting time (FVIII deficient plasma; Table 4, 2.5 μM, 2.2 nM FIXa, duplicate 1): 94.4 s | clotting time (FVIII deficient plasma; Table 4, 2.5 μM, 2.2 nM FIXa, duplicate 2): 94.7 s | average clotting time (FVIII deficient plasma; Table 4, 2.5 μM, w/o FIXa): 103 s | clotting time (FVIII deficient plasma; Table 4, 2.5 μM, w/o FIXa, duplicate 1): 102.7 s | clotting time (FVIII deficient plasma; Table 4, 2.5 μM, w/o FIXa, duplicate 2): 103.4 s | average clotting time (FVIII deficient plasma; Table 4, 5 μM, 2.2 nM FIXa): 86 s | clotting time (FVIII deficient plasma; Table 4, 5 μM, 2.2 nM FIXa, duplicate 1): 86 s | clotting time (FVIII deficient plasma; Table 4, 5 μM, 2.2 nM FIXa, duplicate 2): 85.1 s | average clotting time (FVIII deficient plasma; Table 4, 5 μM, w/o FIXa): 99 s | clotting time (FVIII deficient plasma; Table 4, 5 μM, w/o FIXa, duplicate 1): 99.2 s | clotting time (FVIII deficient plasma; Table 4, 5 μM, w/o FIXa, duplicate 2): 99.1 s | average clotting time (FVIII deficient plasma; Table 4, 7.5 μM, 2.2 nM FIXa): 82 s | clotting time (FVIII deficient plasma; Table 4, 7.5 μM, 2.2 nM FIXa, duplicate 1): 80.9 s | clotting time (FVIII deficient plasma; Table 4, 7.5 μM, 2.2 nM FIXa, duplicate 2): 82.2 s | average clotting time (FVIII deficient plasma; Table 4, 7.5 μM, w/o FIXa): 98 s | clotting time (FVIII deficient plasma; Table 4, 7.5 μM, w/o FIXa, duplicate 1): 97.6 s | clotting time (FVIII deficient plasma; Table 4, 7.5 μM, w/o FIXa, duplicate 2): 98.1 s | average clotting time (FVIII deficient plasma; Table 4, 10 μM, 2.2 nM FIXa): 76 s | clotting time (FVIII deficient plasma; Table 4, 10 μM, 2.2 nM FIXa, duplicate 1): 74.2 s | clotting time (FVIII deficient plasma; Table 4, 10 μM, 2.2 nM FIXa, duplicate 2): 77.2 s | average clotting time (FVIII deficient plasma; Table 4, 10 μM, w/o FIXa): 95 s | clotting time (FVIII deficient plasma; Table 4, 10 μM, w/o FIXa, duplicate 1): 93.5 s | clotting time (FVIII deficient plasma; Table 4, 10 μM, w/o FIXa, duplicate 2): 95.8 s | average clotting time (FVIII deficient plasma; Table 4, 12.5 μM, 2.2 nM FIXa): 73 s | clotting time (FVIII deficient plasma; Table 4, 12.5 μM, 2.2 nM FIXa, duplicate 1): 72.3 s | clotting time (FVIII deficient plasma; Table 4, 12.5 μM, 2.2 nM FIXa, duplicate 2): 73.7 s | average clotting time (FVIII deficient plasma; Table 4, 12.5 μM, w/o FIXa): 98 s | clotting time (FVIII deficient plasma; Table 4, 12.5 μM, w/o FIXa, duplicate 1): 98 s | clotting time (FVIII deficient plasma; Table 4, 12.5 μM, w/o FIXa, duplicate 2): 98.6 s | average clotting time (FVIII deficient plasma; Table 4, 15 μM, 2.2 nM FIXa): 75 s | clotting time (FVIII deficient plasma; Table 4, 15 μM, 2.2 nM FIXa, duplicate 1): 76.1 s | clotting time (FVIII deficient plasma; Table 4, 15 μM, 2.2 nM FIXa, duplicate 2): 74.4 s | average clotting time (FVIII deficient plasma; Table 4, 15 μM, w/o FIXa): 96 s | clotting time (FVIII deficient plasma; Table 4, 15 μM, w/o FIXa, duplicate 1): 96.4 s | clotting time (FVIII deficient plasma; Table 4, 15 μM, w/o FIXa, duplicate 2): 95.4 s | aPTT based one-stage clotting activity (FVIII deficient plasma; compared with A1/3): somewhat reduced, was still easily detectable

RRREGAGYYVNWYFDRRR [A1/3-2]
chromogenic activity (human FIXa; Alanine scan): high chromogenic activity | one-stage clotting time (printed in brackets after 'strong reduction' / 'strongly active') (FVIII deficient plasma; 12.5 μM): 34 s | one-stage clotting activity (FVIII deficient plasma; [1]): strong reduction of the one-stage clotting time

RRREGGAYYVNWYFDRRR [A1/3-3]
final concentration of optimum chromogenic activity (human FIXa): ~12 µM | one-stage clotting time (printed in brackets after 'strong reduction' / 'strongly active') (FVIII deficient plasma; 12.5 μM): 31 s | one-stage clotting activity (FVIII deficient plasma; higher concentrations (12.5 μM), absence of FIXa): somewhat inhibitory | one-stage clotting activity (FVIII deficient plasma; [1]): strongly active

RRRFGVGYGETNFDWRRR [B1/7scr3]
FIXa activating activity in chromogenic assay (human FIXa; data not shown): no activity | clotting time (FVIII deficient plasma; 12.5 nM peptide, (+) presence of activated human FIX): 94 s | clotting time (FVIII deficient plasma; 12.5 nM peptide, (−) absence of activated human FIX): 105 s | clotting time (FVIII deficient plasma; 0.125 μM peptide, (+) presence of activated human FIX): 94 s | clotting time (FVIII deficient plasma; 0.125 μM peptide, (−) absence of activated human FIX): 106 s | clotting time (FVIII deficient plasma; 1.25 μM peptide, (+) presence of activated human FIX): 94 s | clotting time (FVIII deficient plasma; 1.25 μM peptide, (−) absence of activated human FIX): 105 s | clotting time (FVIII deficient plasma; 12.5 μM peptide, (+) presence of activated human FIX): 102 s | clotting time (FVIII deficient plasma; 12.5 μM peptide, (−) absence of activated human FIX): 115 s

RRREGGEYYVNWYFDRRR [A1/3-24]
chromogenic FVIII-like activity at higher concentrations (human FIXa; up to 24 μM): lost activity | procoagulant activity (FVIII deficient plasma; absence of human FIXa): no procoagulant activity | one-stage clotting activity (FVIII deficient plasma; [1]): strongly active
